In PubChem BioAssay (NCI):
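A five-concentration, 48-hour dose response in 96-well plates underlies each endpoint, interpolated linearly between surrounding concentrations. The concentration for full growth arrest is given as TGI.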

How the values were obtained:
Assay in all cases: NCI anticancer screen, dose series, 48 h
DU-145 prostate = tested on: DU-145 prostate
HOP-62 NSCLC = tested on: HOP-62 NSCLC
SK-OV-3 ovarian = tested on: SK-OV-3 ovarian
COLO 205 colon = tested on: COLO 205 colon
SK-MEL-28 melanoma = tested on: SK-MEL-28 melanoma
OVCAR-5 ovarian = tested on: OVCAR-5 ovarian
SF-539 CNS = tested on: SF-539 CNS
HCT-116 colon = tested on: HCT-116 colon
TK-10 renal = tested on: TK-10 renal
SW-620 colon = tested on: SW-620 colon

| Compound | TGI (DU-145 prostate) [µM] | TGI (HOP-62 NSCLC) [µM] | TGI (SK-OV-3 ovarian) [µM] | TGI (COLO 205 colon) [µM] | TGI (SK-MEL-28 melanoma) [µM] | TGI (OVCAR-5 ovarian) [µM] | TGI (SF-539 CNS) [µM] | TGI (HCT-116 colon) [µM] | TGI (TK-10 renal) [µM] | TGI (SW-620 colon) [µM] |
| --- | --- | --- | --- | --- | --- | --- | --- | --- | --- | --- |
| Cc1cccc(-c2cc(=O)c3ccc(C)nc3[nH]2)c1 | > 56.9 | > 100 | > 100 | 4.06 | > 100 | > 100 | 14.6 | > 20.4 | > 84.6 |  |
| O=[N+]([O-])CC(SCc1ccccc1)c1ccc2c(c1)OCO2 (stereo not drawn) | 30 | 33 | 28.6 | 21.1 | 17 | 30.2 | 10.9 | 4.46 | 25.2 | 15.4 |
| COC(=O)C1=NN2c3ccccc3C(=O)OCCC2C1 (stereo not drawn) | > 100 | > 100 | > 100 | > 100 | > 100 | > 100 | > 100 | > 100 | > 100 | > 100 |
| N#Cc1c(=O)c2cc([N+](=O)[O-])ccc2n2c1[nH]c1ccccc12 | > 100 | 97.7 | > 100 | > 44.4 | > 64.8 | > 100 | > 100 | > 40.1 | > 100 | > 100 |
| CCC(=O)OCc1ccc2oc(=O)c(C(=O)Oc3cncc(Cl)c3)cc2c1 | > 100 | > 100 | > 100 | > 100 | > 100 | > 100 | > 100 | > 100 | > 100 | > 100 |
| C[n+]1c2ccccc2c(CNC(CCC(N)=O)C(=O)O)c2ccccc21 (stereo not drawn) | 11.4 | 12.3 | 19.7 | 2.14 | 12.1 | 18 | 5.61 | 1.21 | 5.68 | 1.95 |
| CC(=O)Oc1ccn2nc(C)c(Br)c2c1Br | > 100 | > 87 |  | 38 | 45 |  | 45.7 | > 58.7 | > 94.8 | > 73.6 |
| CC(C)CCCC(C)[C@H]1CC[C@H]2[C@@H]3CC[C@H]4C[C@@H](CCC=C(c5cc(Cl)c(O)c(C(=O)OC(C)(C)C)c5)c5cc(Cl)c(O)c(C(=O)OC(C)(C)C)c5)CC[C@]4(C)[C@H]3CC[C@]12C (stereo partly drawn) | > 50 | > 50 | > 50 | > 50 | > 50 | > 50 | > 50 | > 50 |  | > 50 |
| O=C1Oc2ccccc2C(=O)/C1=C/N1C(=O)/C(=C/c2ccc([N+](=O)[O-])cc2)SC1=S | > 100 | 40.8 | 89.5 | 53.2 | 85.7 | > 100 | 45 | 50.2 |  | > 100 |
| N=c1c2c3n(c4c(=O)n(-c5ccccc5)c(=S)n(c(=O)n1-c1ccccc1)c24)CCCCC3 | > 100 | > 100 | > 100 | > 100 | > 100 | > 100 | > 100 | > 100 | > 100 | > 100 |
| Oc1cc(Cl)cc2cc(Br)cnc12 | > 100 | > 55.1 | > 100 | > 100 | > 100 | > 100 | > 100 | > 100 | > 100 | > 100 |
| C=C1CC/C=C(/C(=O)O)CC[C@H]2[C@@H]1CC2(C)C | > 100 | > 100 | > 100 | > 100 | > 100 | > 100 | > 100 | > 100 | > 100 | > 100 |
| O=[N+]([O-])c1ccc(Cl)cc1C1ON=C(c2ccccc2)N1C12CC3CC(CC(C3)C1)C2 (stereo not drawn) | > 100 | > 100 | > 100 | > 100 | > 100 | > 100 | > 100 | > 100 | > 100 |  |
| OC(c1cccs1)c1cc2ccccc2s1 (stereo not drawn) | > 10 | > 10 | > 10 | > 10 | > 10 | > 10 | > 10 | > 10 | > 10 | > 10 |
| Oc1[nH]c2ccccc2c1N=NC1=NCCCCN1 | > 100 | > 100 | > 100 | > 100 |  | > 100 | > 100 | > 100 | > 100 | > 100 |
| Cc1ccc(C(=O)CC(Cl)=C(Cl)Cl)cc1 | > 100 | > 100 | > 100 | > 100 | > 100 | > 100 | > 100 | > 100 | > 100 | > 100 |
| c1ccc2c(c1)CCc1c-2n(CCN2CCCCC2)c2ccccc12 | > 100 | 30.1 | 49.7 | 26.2 | 50.9 | 30.2 | 26.6 | 25.5 | 35.9 | 50.1 |
| COC(=O)c1ccc2n1C1CC3CC(CC2C3)C1 | > 100 | > 100 | > 100 | > 100 | > 100 | > 100 | > 100 | > 100 | > 100 | > 100 |
| COC(=O)NCCc1[nH]nc2c1C(=O)C=C(OC)C2=O | > 100 | 36 | > 100 | 52.8 | 35.3 | 37.8 | 33.5 | 32.6 | > 100 | 43.9 |
| Cc1cc(C)c2c(n1)S(=O)(=O)N(CCCN1CCN(c3cccc(C(F)(F)F)c3)CC1)/C(=C(\O)c1ccccc1)C2=O | > 100 | > 100 | 84.7 | 14.7 | 57.5 | 39 | 98.7 | 18.3 | > 100 | 29.3 |
| OC1C(O)C(O)C(O)C(O)C1O (stereo not drawn) | > 1000 | > 1000 | > 1000 | > 1000 | > 1000 | > 1000 | > 1000 | > 1000 | > 1000 | > 1000 |
